Here are results for 19 compounds from US4284653A, “Process for handling and processing fish meat” (Nippon Suisan Kabushiki Kaisha, priority 1979, dated 1981).

The subject of assay [1] is protease of hake flesh with jellied condition. The experiment in a line: Inhibition of protease in aqueous extract of hake meat with jellied condition (urea-denatured hemoglobin substrate, Folin method). It counts as biochemical. On the procedure: North Pacific hake (Merluccius products) on which the sporosa were parasitic was minced and homogenized with two volumes of water. After standing for 2 hours, the homogenate was centrifuged (15,000 xg, 20 minutes) under cooling condition, and the supernatant was dialyzed against tap water for 24 hours. The residual liquid remaining after the dialysis was heated at 50° C. for 20 minutes. The resulting precipitate was removed under cooling by centrifuge (15,000 xg, 30 minutes). The supernatant liquid was designated an aqueous extract of fish meat with jellied condition.
Separately, 3 ml of Mclvaine buffer solution (pH=3) was added to 1 ml of urea-denatured bovine hemoglobin (at a concentration of 4%) to prepare a substrate solution. 1 ml of a 1:1 mixture of the above obtained extract and a solution of various TPI was added to the above prepared substrate solution. The resulting mixture was incubated at 40° C. for 5 minutes. Thereafter, 5 ml of a 5% trichloroacetic acid was added to the mixture to allow the reaction to stop. The reaction mixture was left to stand for 30 minutes at room temperature. Then, the mixture was filtered through a filter paper (Toyo filter paper No. 5C). 1 ml of the filtrate was colorometrically determined at a wave length of 660 mμ by a Folin method.
The protease inhibition ratio of various proteolytic activity of the TPI is expressed as the […] relative activity with respect to 100 of the activity of an extract prepared by adding water instead of the TPI solution. That is, [formula]

The test system of assay [2] is proteolytic enzyme of yellowfin sole meat with jellied condition. The experiment in a line: Proteolytic enzyme activity of treated fish meat, yellowfin sole. The class given is biochemical, yellowfin sole (Limanda aspera). From the text: (§1) The quantity of the TPI added generally also depends upon the concentration of a proteolytic enzyme of fish meat contaminated with sporozoa. For example, North Pacific hake on which sporozoa are parasitic has a proteolytic enzyme activity of from a low level up to 30,000 units.
One hundred North Pacific frozen yellowfin sole containing a large number of spots of jellied condition in their muscles were thawed. These flatfish were gutted and the abdominal pores were washed.
During the dipping, the flatfish were irradiated with supersonic waves having a frequency of 18 KC for 10 minutes by using the same magnetostriction type supersonic wave oscillator as described in Example 2. Thereafter, the flatfish were drained. Then, these fish were dried at 15° C. in a low temperature dryer dehydromaster to obtain dried flatfish with salt.
350 Kg of the flatfish was headed and gutted and the meat was collected by means of a fish meat separator. […] As described in Example 9, this fish meat was twice soaked in cold water in a quantity two times that of the meat and drained to obtain 130 Kg of hydroextracted meat.
A solution of 0.6 g of antipain in 1 l of water was added to 60 Kg of each sample of the hydroextracted meat and the mixture was uniformly mixed. 10 Kg of the mixture was packed in a polyethylene bag to obtain a raw kneaded meat. A control was prepared in the same manner except that 1 l of water alone was added.
These raw kneaded meats were stored in a refrigerator at a temperature of from 4° to 5° C. for 24 hours. Thereafter, these meats were removed from the refrigerator. Then, 1.5 Kg of sodium chloride, 2.5 Kg of sugar, 4.0 Kg of starch, 1.2 Kg of mirin (sweet sake) and 0.5 Kg of sodium glutamate were added to 50 Kg of each of the raw kneaded meats, and the mixture was ground and formed into "itatuki-kamaboko" according to a conventional method.

Assay [3] has as its system proteolytic enzyme of Pacific hake meat with jellied condition. Briefly: Proteolytic enzyme activity of treated fish meat, Pacific hake. The class given is biochemical. Conditions: Example 11; soaked 10 minutes in 200 l cold water with 100 g sodium hydrogensulfite; control 3,200 units.
Excerpt: as §1
The resulting fish was subjected to a fillet making machine to obtain skinless fillets. […] Each fillet sample was washed with water containing 0.05% of sodium sulfite. […]
Then, fish meat was collected from the thawed hake by means of a fish meat separator. […] The fish meat was soaked in cold water in a quantity two times that of the meat and drained, and it was again soaked in cold water in the same quantity and drained to obtain 105 Kg of hydroextracted meat. […]
The frozen testing and control kneaded meats thus obtained were thawed and subjected to a model estimation method of elasticity. In testing the elasticity, the kneaded meats are usually formed into a model product of a Japanese style fish meat paste and the model product is evaluated for quality.
200 Kg of the frozen fillet of the same Pacific hake as that described in Example 9 was thawed. […] Then, the fish meat was soaked in cold water in a quantity two times that of the meat and drained. […] The first portion was soaked in cold water in a quantity two times that of the meat and drained to obtain 50 Kg of hydroextracted meat as a control. […]

Where [4] appears, read: concentration 0.01%, 40° C., 5 minutes, pH 3.
The mark [5] stands for this setting: concentration 0.002%, 40° C., 5 minutes, pH 3.
The mark [6] stands for this setting: aqueous fish meat extract, pH 3, 5 min.
The mark [7] stands for this setting: concentration 0.02%, 40° C., 5 minutes, pH 3.

Starred links: 1 amine or outer side, 2 acyl side, 3 side chain; linkers in the order of their positions; H or OH if unused. Residues, ends and D or L forms follow the SMILES beside them. CO = O=C([*:1])[*:2]

For the compound `N.O.O.O.O.O.O.O.O.O.O.O.O.O=S(=O)([O-])O.O=S(=O)([O-])[O-].[Al+3]` [ammonium alum], in assay [1] (setting [4]), the “inhibition ratio (%)” value was 89.8%.

Take `N.N.O=S(=O)(O)OOS(=O)(=O)O` [ammonium persulfate]: the “inhibition ratio (%)” value in assay [1] (concentration 0.015%, 40° C., 5 minutes, pH 3) was found to be 91.7%.

With `CC(C)[C@H](NC(=O)[C@H](CCCNC(=N)N)NC(=O)N[C@@H](Cc1ccccc1)C(=O)O)C(=O)N[C@H](C=O)CCCNC(=N)N` [antipain] ({Phe-CO}-Arg-Val-Arg-aldehyde), the “inhibition ratio (%)” value in assay [1] (setting [5]) was found to be 72.9%. Also, the “proteolytic enzyme activity of raw kneaded meat” value in assay [2] (Example 12, 0.6 g antipain in 1 l water per 60 Kg hydroextracted meat, control 1,140 units) was found to be 980 units. The “proteolytic enzyme activity of ground meat” value in assay [2] (Example 12, after 24 hours at 4° to 5° C. and grinding with salt, sugar, starch, control 1,080 units) turned out to be 23 units.

With `O=C(OOC(=O)c1ccccc1)c1ccccc1` [benzoyl peroxide], the “inhibition ratio (%)” value in assay [1] (setting [4]) is given as 82.3%.

On to `[Ca+2].[O-]Cl.[O-]Cl` [calcium hypochlorite], for which the “inhibition ratio (%)” value in assay [1] (setting [4]) came out at 98.1%.

Consider `[O]=[Ca]` [calcium oxide], for which the “inhibition ratio (%)” value in assay [1] (setting [4]) amounted to 100.0%.

Take `[O][Cl+][O-]` [chlorine dioxide]: the “inhibition ratio (%)” value in assay [1] (setting [4]) is recorded as 100.0%.

With `OO` [hydrogen peroxide], the “inhibition ratio (%)” value came to 86.8% in assay [1] (concentration 0.001%, 40° C., 5 minutes, pH 3) and 100.0% in assay [1] (setting [4]).

Regarding `OCl` [hypochlorous acid], the “inhibition ratio (%)” value in assay [1] (setting [4]) was determined as 88.5%.

As to `CC(=O)N[C@@H](CC(C)C)C(=O)N[C@@H](CC(C)C)C(=O)N[C@H](C=O)CCCNC(=N)N` [leupeptin, reference compound], in assay [1] (setting [5]), the “inhibition ratio (%)” value was determined as 99.0%.

With `[K+].[K+].[O]=[Cr](=[O])([O-])[O][Cr](=[O])(=[O])[O-]` [potassium dichromate, reference compound], the “inhibition of the activity of the protease produced by the sporozoa (in words)” value in assay [1] is “high inhibition”. Moreover, in assay [1] (setting [6]), the “inhibition ratio (%)” value came to 96.1%.

In the case of `O=[N+]([O-])[O-].[K+]` [potassium nitrate, reference compound], the “inhibition ratio (%)” value in assay [1] (setting [4]) is given as -1.4%.

Take `O=S([O-])O.[Na+]` [sodium hydrogen sulfite]: the “inhibition ratio (%)” value in assay [1] (setting [7]) amounted to 96.1%. For the same compound, the “proteolytic enzyme activity of hydroextracted meat” value in assay [3] is listed as 840 units.

Regarding `OCl` [sodium hypochlorite], the “inhibition ratio (%)” value in assay [1] (setting [4]) was 87.8%.

For the compound `O=S([O-])S(=O)(=O)[O-].[Na+].[Na+]` [sodium metabisulfite], the “inhibition ratio (%)” value in assay [1] (concentration 0.05%, 40° C., 5 minutes, pH 3) was 96.2%.

Take `O=NO` [sodium nitrite]: in assay [1] (setting [6]), the “inhibition ratio (%)” value stood at 90.2%.

In the case of `O=S([O-])[O-].[Na+].[Na+]` [sodium sulfite], the “inhibition ratio (%)” value in assay [1] (setting [7]) came to 93.4%.

On to chymostatin [reference compound], for which, in assay [1] (setting [5]), the “inhibition ratio (%)” value came out at 97.0%. For the same compound, in assay [2] (Example 7, dipped 2 hours in 10% sodium chloride containing 0.01% chymostatin, supersonic waves 18 KC 10 minutes, muscles had 5,000 units before), the “proteolytic enzyme activity of dried flatfish with salt whose muscle was softened and partially depressed” value is reported as 120 units.

Regarding sodium chlorite, the “inhibition ratio (%)” value in assay [1] (setting [4]) was determined as 100.0%.
